{"source": "paper PMC6150365", "about": "“Simultaneous Determination of Seven Components in Rat Plasma by the UPLC-MS/MS Method and Application of Pharmacokinetic Studies to SimiaoYong’an Decoction” (Molecules : A Journal of Synthetic Chemistry and Natural …, 2017)", "assay": "in vivo", "settings": "male, Sprague-Dawley, rat, po; for MRT last: MRT(0–t); for MRT inf: MRT(0–∞); for half-life: t1/2", "protocol": "Pieces of LJ, SN, AS and GU were weighed according to the proportion of 3:3:2:1 with appropriate amounts. The mixed pieces were crushed and decocted two times (60 min each time) with water (1:10 w/v) after being soaked for 60 min. The decoctions were then combined and condensed to the concentration of 0.5 g/mL, after which 95% ethanol was slowly added to the concentrate until a final ethanol concentration of 70% was reached. The SYD solution was set at room temperature overnight and then was filtered. The solvent was recovered, and the residue was dried under reduced pressure. A certain amount of the water extract of SYD was weighed and then dissolved with purified water for intragastric (oral) administration solution. The single herbs and different combination groups such as LJ, SN, AS, GU, LJ + SN, LJ + AS, LJ + GU, SN + AS, SN + GU, AS + GU, LJ + SN + AS, LJ + SN + GU, LJ + AS + GU and SN + AS + GU were prepared according to the procedure of SYD.\nMale Sprague-Dawley (SD) rats (body weight 250 ± 10 g) were supplied by the SPF (Beijing) Biotechnology Co., Ltd. (Certificate No.: SCXK 2016-0002, Beijing, China). The animals were maintained in controlled conditions (temperature 20–25 °C, relative humidity 55–60% and 12-h light/12-h dark cycle) with free access to standard laboratory food and water for seven days of acclimation and then fasted for 12 h before each experiment but allowed to drink freely during this time.\nNinety male SD rats were randomly separated into 15 groups and administered a dosage of extract via gastric gavage once per day; detailed information about the oral daily dose of SYD extract and the corresponding single and combined TCMs (LJ, SN, AS, GU, LJ + SN, LJ + AS, LJ + GU, SN + AS, SN + GU, AS + GU, LJ + SN + AS, LJ + SN + GU, LJ + AS + GU, SN + AS + GU and SYD) is listed in Table 4.\nEach plasma sample (200 μL) with 50 μL IS solution added was spiked into 100 μL 1% formic acid distilled water solution and then vortexed for 1 min. Protein was precipitated by adding 600 μL of methanol to the mixture. After being vortexed and sonicated, the samples were centrifuged at 25,000 r/min, 4 °C for 10 min. The supernatant of each sample was transferred to a new 2-mL centrifuge tube and evaporated to dryness by N2 at 40 °C. Finally, the residue was dissolved in 100 μL methanol–water (1:1, v/v), followed by centrifugation at 30,000 r/min, 4 °C for 10 min, and 10-μL supernatant aliquots were injected into the UPLC-MS/MS system for analysis.\nThe SYD was decomposed into 15 groups of compatibility combinations (LJ, SN, AS, GU, LJ + SN, LJ + AS, LJ + GU, SN + AS, SN + GU, AS + GU, LJ + SN + AS, LJ + SN + GU, LJ + AS + GU, SN + AS + GU and SYD). The 15 combinations were weighed according to the proportion of 3:3:2:1 with appropriate amounts and prepared by the method described in “Section 3.2”. Six male SD rats (body weight 250 ± 10 g) of each compatibility group were used in the pharmacokinetic study. After 12-h fast, rats of the different groups were orally administered the respective extract dissolved in saline (Table 4). Venous blood (0.45 mL) was obtained from the orbit vein and collected in heparin-pretreated polypropylene centrifuge tubes at 0.083 h, 0.17 h, 0.25 h, 0.50 h, 0.75 h, 1.0 h, 1.5 h, 2.0 h, 3.0 h, 4.0 h, 6.0 h, 8.0, 12 h and 24 h post-dose. The plasma was separated by centrifugation at 8000 r/min for 10 min and then stored at −20 °C until analysis. The amount of each analyte in the plasma was estimated by UPLC-MS/MS analysis as described in Section 3.5.\nNon-compartmental methods using Phoenix WinNonlin 7.0 software provided by the Beijing University of Chinese Medicine were used to analyze plasma concentration versus time profiles and to estimate the following pharmacokinetic parameters: terminal elimination half-lives (t1/2), area under the plasma concentration versus time curve from zero to last sampling time (AUC), and the mean residence time (MRT).", "data": [{"smiles": "C=C[C@H]1[C@H](O[C@@H]2O[C@H](CO)[C@@H](O)[C@H](O)[C@H]2O)OC=C2C(=O)OCC[C@H]21", "note": "[Sweroside, sweroside]", "values": [{"measurement": "AUC(0-t)", "setting": "2.15 g/kg", "result": "6900 ± 2660", "unit": "ng·h/mL"}, {"measurement": "AUC(0-inf)", "setting": "2.15 g/kg", "result": "7860 ± 4080", "unit": "ng·h/mL"}, {"measurement": "Cmax", "setting": "2.15 g/kg", "result": "2920 ± 1770", "unit": "ng/mL"}, {"measurement": "MRT last", "setting": "2.15 g/kg", "result": "4.46 ± 1.2", "unit": "h"}, {"measurement": "MRT inf", "setting": "2.15 g/kg", "result": "7.5 ± 5.21", "unit": "h"}, {"measurement": "Tmax", "setting": "2.15 g/kg", "result": "0.96 ± 0.58", "unit": "h"}, {"measurement": "half-life", "setting": "2.15 g/kg", "result": "7.39 ± 6.33", "unit": "h"}, {"measurement": "AUC(0-t)", "setting": "8.25 g/kg", "result": "4490 ± 280", "unit": "ng·h/mL"}, {"measurement": "AUC(0-inf)", "setting": "8.25 g/kg", "result": "4530 ± 290", "unit": "ng·h/mL"}, {"measurement": "Cmax", "setting": "8.25 g/kg", "result": "1970 ± 700", "unit": "ng/mL"}, {"measurement": "MRT last", "setting": "8.25 g/kg", "result": "3.3 ± 0.39", "unit": "h"}, {"measurement": "MRT inf", "setting": "8.25 g/kg", "result": "3.53 ± 0.29", "unit": "h"}, {"measurement": "Tmax", "setting": "8.25 g/kg", "result": "1.33 ± 0.49", "unit": "h"}, {"measurement": "half-life", "setting": "8.25 g/kg", "result": "4.14 ± 1.46", "unit": "h"}]}]}
